Read-outs that look alike come from different tables or passages of the source.
Key:
[1] = UHPLC-MS of LG components in the retina after LG gavage; format: in vivo, mouse; details: for retinal levels 24 h after LG administration: longest time period investigated; for AUC 0-24h in the retina / C max in the retina: *mg of retinal tissue (wet weight), n = 3; for Tmax: retina, 4.15 g LG/Kg of body weight
Procedure: For the analysis of different LG components reaching the retina after LG ingestion, a total of eighteen 6-mo-old D2 mice received an oral administration of LG solution by gavage. The retinas of three mice were dissected and quickly frozen in liquid nitrogen after 0 or 30 min and after 1, 2, 6, or 24 h. The retinas were stored at −80°C until used for mass spectrometry.
Assuming an average mouse body weight of 20 g, this dose corresponded to 4.15 g LG/Kg of body weight (human equivalent dose, 340 mg LG/Kg of body weight).
The main components of LG were determined in the LG powder (1 mg sample) using the same procedure as described below for the retinas. The most abundant were gallic acid, 4-hydroxybenzoic acid, quercetin, and nicotinamide (Table 2), therefore these metabolites were chosen as the LG components to be determined in the retina. To this aim, LG was administered to the mice by gavage and the retinas were dissected at different time points. The two retinas from each mouse were pooled together and they were resuspended in 0.2 ml of ice cold ultra-pure water (18 MΏ-cm) to lyse the cells. Three independent samples were analyzed for each time point. The tubes were plunged into dry ice or in a circulating bath at −25°C for 0.5 min and then into a water bath at 37°C for 0.5 min. Subsequently, 0.6 ml of −20°C methanol and then 0.4 ml of −20°C chloroform were added to each tube. The tubes were mixed every 5 min for 30 min, then they were centrifuged at 1000 × g for 1 min at 4°C, before being transferred to −20°C for 2–8 h. After centrifugation at 15,000 × g for 10 min at 4°C, the supernatants were collected and dried. Finally, the dried samples were resuspended in 0.1 ml of water and transferred to glass autosampler vials for LC-MS analysis. The supernatants were injected (20 μl) into a UHPLC system (Ultimate 3000; ThermoFisher Scientific, Waltham, MA, United States) and run in negative ion mode for determination of 4-hydroxy benzoic acid and in positive ion mode for the other. A ReproSil C18 column (2.0 mm × 150 mm, 2.5 μm; Dr Maisch, Ammerbuch-Entringen, Germany) was used for metabolite separation. […] For positive ion mode (+) MS analyses, a 0–100% linear gradient of solvent A (ddH2O, 0.1% formic acid) to B (acetonitrile, 0.1% formic acid) was employed over 20 min returning to 100% A in 3 min. For negative ion mode chromatographic separations A 0–100% linear gradient of solvent A (double-distilled 18 MΏ-cm water, […]) to B (100% acetonitrile, 10 mm ammonium acetate) was employed over 20 min, returning to 100% A in 3 min and a […] solvent A hold. The UHPLC system was coupled online with a mass spectrometer Q Exactive (ThermoFisher) scanning in full MS mode (2 μ scans) at 70,000 resolution in the 60–1000 m/z range. Data files were processed by MAVEN. 8.1 (http://genomics-pubs.princeton.edu/mzroll/) upon conversion of raw files into mzXML format through MassMatrix (Yellow Springs, OH, United States). Standard curves were obtained with several calibration points (2–0.00002 mg) of gallic acid, 4-hydroxybenzoic acid, quercetin, and nicotinamide analytical standards (Sigma Aldrich, St Louis, MO, United States).

[2] = parameters: method as in printed; details: general statement, no test and ref not given; cited from earlier work
[3] = D2 mice, LG by gavage 1 ml of 83 mg LG/ml (4.15 g LG/Kg)

T max in the retina [1, 3] | AUC 0-24h in the retina [1, 3] | C max in the retina [1, 3] | time within which retinal levels decreased ([1]; after LG administration by gavage) | Tmax ([1]; mouse, po, D2 mice, LG by gavage 1 ml of 83 mg LG/ml (4.15 g LG/Kg), read-out: T max in the retina) | Tmax ([1]; D2, mouse, po, after LG administration by gavage, read-out: time of maximum concentration in the retina) | SMILES | T max in the retina ([1]; D2, mouse, in vivo, po) | retinal levels 24 h after LG administration [1] | solubility in water [2]
 |  |  |  |  |  | O=C(O)c1cc(O)c(O)c(O)c1 [Gallic acid, gallic acid] | 30 min | still in the range of its maximum concentration | 
30 min | 958.500 ± 291.500 ng·h/mg | 444.250 ± 109.713 ng/mg |  |  |  | O=C(O)c1ccc(O)cc1 [Hydroxy benzoic acid, 4-hydroxybenzoic acid] |  |  | only slightly soluble in water
 | 0.263 ± 0.049 ng·h/mg | 0.061 ± 0.016 ng/mg | ≤ 2 h | 30 min |  | O=c1c(O)c(-c2ccc(O)c(O)c2)oc2cc(O)cc(O)c12 [Quercetin, quercetin] |  |  | 
 | 106.900 ± 52.210 ng·h/mg | 8.040 ± 1.274 ng/mg |  |  | 360 min | NC(=O)c1cccnc1 [Nicotinamide, nicotinamide] |  | detectable, although low | 
